According to patent publication US7879838B2, “Heteroaryl substituted pyrazinyl-piperazine-piperidines with CXCR3 antagonist activity” (Schering Corporation, priority 2005, dated 2011):

Target: T1, Human CXCR3 (N-delta 4) (Homo sapiens, UniProt P49682)
T1 construct: CD8 leader (N); Flag tag; expressed in transfected cells; membranes prepared
T1 sequence (P49682 5-368 limits assumed): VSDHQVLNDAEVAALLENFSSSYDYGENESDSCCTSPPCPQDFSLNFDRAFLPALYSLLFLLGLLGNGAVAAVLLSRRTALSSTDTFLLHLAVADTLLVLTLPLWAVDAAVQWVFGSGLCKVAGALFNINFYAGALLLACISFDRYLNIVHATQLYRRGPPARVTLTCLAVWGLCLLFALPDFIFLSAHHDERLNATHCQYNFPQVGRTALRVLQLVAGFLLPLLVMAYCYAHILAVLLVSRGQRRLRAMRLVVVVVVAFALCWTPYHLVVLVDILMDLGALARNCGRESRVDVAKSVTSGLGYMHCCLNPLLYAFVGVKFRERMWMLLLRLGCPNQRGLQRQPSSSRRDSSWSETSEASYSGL
Experiment: Human CXCR3 (N-delta 4) scintillation proximity assay (SPA), [125I] IP-10 binding to Ba/F3-hCXCR3 membranes
Conditions: IC50 rating; 25 pM [125I] IP-10, membranes of Ba/F3 cells expressing human CXCR3 (N-delta 4)
Source text: The inventive compounds can readily be evaluated to determine activity at The CXCR3 receptors by known methods, such as, for example, Development of Human CXCR3 (N-delta 4) Binding Assay.
Cloning and Expression of Human CXCR3 (N-delta 4):
The DNA encoding human CXCR3 was cloned by PCR using human genomic DNA (Promega, Madison, Wis.) as a template. The PCR primers were designed based on the published sequence of human orphan receptor GPR9 (1) with incorporated restriction sites, a Kozak consensus sequence, CD8 leader and Flag tag. The PCR product was subcloned into the mammalian expression vector pME18Sneo, a derivative of the SR-alpha expression vector (designated as pME18Sneo-hCXCR3 (N-delta 4).
IL-3-dependent mouse pro-B cells Ba/F3 were transfected by electroporation in 0.4 ml Dulbecco's PBS containing 4×10^6 cells with 20 μg of pME18Sneo-hCXCR3 (N-delta 4) plasmid DNA. Cells were pulsed at 400 Volts, 100 OHMs, 960 μFd. The transfected cells were under selection with 1 mg/ml G418 (Life Technologies, Gaithersburg, Md.). G418-resistant Ba/F3 clones were screened for CXCR3 expression by specific binding of [^125I] IP-10 (NEN Life Science Products, Boston, Mass.).
Preparation of Ba/F3-hCXCR3 (N-delta 4) Membranes
Ba/F3 cells expressing human CXCR3 (N-delta 4) were pelleted and resuspended in the lysis buffer containing 10 mM HEPES, pH 7.5 and Complete® protease inhibitors (1 tablet per 100 ml) (Boehringer Mannheim, Indianapolis, Ind.) at a cell density of 20×10^6 cells per ml. After 5 minutes incubation on ice, cells were transferred to 4639 cell disruption bomb (Parr Instrument, Moline, Ill.) and applied with 1,500 psi of nitrogen for 30 minutes on ice. Large cellular debris was removed by centrifugation at 1,000×g. Cell membrane in the supernatant was sedimented at 100,000×g. The membrane was resuspended in the lysis buffer supplemented with 10% sucrose and stored at −80° C. Total protein concentration of the membrane was determined by BCA method from Pierce (Rockford, Ill.).
Human CXCR3 (N-delta 4) Scintillation Proximity Assay (SPA)
For each assay point, 2 μg of membrane was preincubated for 1 hr with 300 μg wheat germ agglutinin (WGA) coated SPA beads (Amersham, Arlington Heights, Ill.) in the binding buffer (50 mM HEPES, 1 mM CaCl2, 5 mM MgCl2, 125 mM NaCl, 0.002% NaN3, 1.0% BSA) at room temperature. The beads were spun down, washed once, resuspended in the binding buffer and transferred to a 96-well Isoplate (Wallac, Gaithersburg, Md.). 25 pM of [^125I] IP-10 with tested compounds in a series of titration were added to start the reaction. After 3 hr reaction at room temperature, the amount of [^125I] IP-10 bound to the SPA beads was determined with a Wallac 1450 Microbeta counter.
The Ki values for the various example compounds of the present invention are given in the afore-mentioned Table 1. From these values, it would be apparent to the skilled artisan that the compounds of the invention have excellent utility CXCR3 antagonists.

IC50 | SMILES
> 100 nM | CC[C@H]1CN(c2ncc(C(=O)O)nc2Cl)CCN1C1CCN(C(=O)c2ccc(Cl)nc2N)CC1 [compound 99]
> 100 nM | CC[C@H]1CN(c2nc(N)c(C(=O)Nc3cc(O)[nH]n3)nc2Cl)CCN1C1CCN(C(=O)c2ccc(Cl)nc2N)CC1 [compound 100]
> 100 nM | CC[C@H]1CN(c2nc(N)c(C(=O)NC(=N)n3cccn3)nc2Cl)CCN1C1CCN(C(=O)c2ccc(Cl)nc2N)CC1 [compound 101]
> 100 nM | CC[C@H]1CN(c2nc(N)c(C(=O)NN)nc2Cl)CCN1C1CCN(C(=O)c2c(C)noc2C)CC1 [compound 102]
> 100 nM | CC[C@H]1CN(c2nc(N)c(C(=O)NCCO)nc2Cl)CCN1C1CCN(C(=O)c2ccc(C)nc2O)CC1 [compound 103]
> 100 nM | CC[C@H]1CN(c2nc(N)c(C(=O)NCCO)nc2Cl)CCN1C1CCN(Cc2ccc3nccn3c2)CC1 [compound 104]
> 100 nM | CC[C@H]1CN(c2nc(NCC3CC3)c(C(=O)OC)nc2Cl)CCN1C1CCN(C(=O)c2ccc(Cl)nc2N)CC1 [compound 105]
> 100 nM | CC[C@H]1CN(c2nc(N)c(C(=O)NCCO)nc2Cl)CCN1C1CCN(C(=O)c2ccc(C(N)=O)nc2N)CC1 [compound 106]
> 100 nM | CC[C@H]1CN(c2nc(N)c(C(N)=O)nc2Cl)CCN1C1CCN(C(=O)c2ccc(-n3cncn3)nc2)CC1 [compound 107]
> 100 nM | CC[C@H]1CN(c2nc(N)c(C(=O)NC)nc2Cl)CCN1C1CCN(Cc2cc(Cl)nc(Cl)c2)CC1 [compound 108]
> 100 nM | CC[C@H]1CN(c2nc(N)c(C(=O)O)nc2Cl)CCN1C1CCN(C(=O)c2ccc(Cl)nc2N)CC1 [compound 109]
> 100 nM | CC[C@H]1CN(c2nc(N)c(C(=O)NC)nc2Cl)CCN1C1CCN(C(=O)c2ccnc(Cl)c2)CC1 [compound 110]
> 100 nM | CC[C@H]1CN(c2nc(N)c(C(=O)NN)nc2Cl)CCN1C1CCN(S(=O)(=O)c2c(C)noc2C)CC1 [compound 111]
> 100 nM | CC[C@H]1CN(c2nc(N)c(C(=O)NC)nc2Cl)CCN1C1CCN(C(=O)c2cnc(C)cn2)CC1 [compound 112]
> 100 nM | CC[C@H]1CN(c2nc(N)c(C(N)=O)nc2Cl)CCN1C1CCN(CC2COc3ccccc3O2)CC1 (stereo partly drawn) [compound 113]
> 100 nM | CC[C@H]1CN(c2nc(N)c(C(N)=O)nc2Cl)CCN1C1CCN(C(=O)c2ccc(Cl)n3ccnc23)CC1 [compound 114]
> 100 nM | CC[C@H]1CN(c2nc(N)c(C(N)=O)nc2Cl)CCN1C1CCN(C(=O)c2ncc(C)nc2N)CC1 [compound 115]
> 100 nM | CC[C@H]1CN(c2nc(N)c(C(=O)NC)nc2Cl)CCN1C1CCN(C(=O)c2cc(Cl)nc(Cl)c2)CC1 [compound 116]
> 100 nM | CC[C@H]1CN(c2nc(N)c(C(=O)NCCO)nc2Cl)CCN1C1CCN(C(=O)c2nccnc2N)CC1 [compound 117]
< 25 nM | CC[C@H]1CN(c2ncc(C(=O)NC(C)C)nc2Cl)CCN1C1CCN(C(=O)c2ccc(Cl)nc2N)CC1 [compound 118]
< 25 nM | CC[C@H]1CN(c2ncc(C(=O)NC3CC3)nc2Cl)CCN1C1CCN(C(=O)c2ccc(Cl)nc2N)CC1 [compound 119]
< 25 nM | CC[C@H]1CN(c2ncc(C(=O)NC(C)(C)C)nc2Cl)CCN1C1CCN(C(=O)c2ccc(Cl)nc2N)CC1 [compound 120]
< 25 nM | CC[C@H]1CN(c2ncc(C(N)=O)nc2C(F)(F)F)CCN1C1CCN(C(=O)c2ccc(Cl)nc2N)CC1 [compound 121]
< 25 nM | CC[C@H]1CN(c2ncc(C(=O)NC)nc2Cl)CCN1C1CCN(C(=O)c2ccc(Cl)nc2N)CC1 [compound 122]
< 25 nM | CC[C@H]1CN(c2ncc(C(=O)NC(C)C)nc2C)CCN1C1CCN(C(=O)c2ccc(Cl)nc2N)CC1 [compound 123]
< 25 nM | CC[C@H]1CN(c2ncc(C(=O)NCCO)nc2C)CCN1C1CCN(C(=O)c2ccc(Cl)nc2N)CC1 [compound 124]
< 25 nM | CC[C@H]1CN(c2ncc(C(=O)NCCO)nc2Cl)CCN1C1CCN(C(=O)c2ccc(Cl)nc2N)CC1 [compound 125]
